# Measurements from patent US9663478B2, “Benzotriazine oxides as drugs targeting Mycobacterium tuberculosis” (priority 2011, dated 2017).
# “Also recorded” adds a separate entry of the source.
# How the values were obtained:
# Escherichia coli BAA 201 = assay: Spectrum of antimicrobial activity; format: cell-based
# [1] = system: Staphylococcus aureus ATCC 29213; assay: Spectrum of antimicrobial activity; format: cell-based
# [2] = system: Staphylococcus aureus HA-MRSA NRS 382; assay: Spectrum of antimicrobial activity; format: cell-based
# [3] = system: Salmonella typhimurium tester strain TA98; assay: Salmonella/microsome plate incorporation assay (Ames screen), TA98; format: cell-based
# From the text: (§1) A liability in developing any bioreductively-activated antimicrobial drug is the potential for mutagenicity. Because the basis for activity of these compounds is the generation of intermediate radical species, undesirable mutagenicity poses a risk, as has been documented for many classes of bioreductive drugs, including the BTO tirapazamine (TPZ).^19,20 The most convenient methodology for assessing the potential to induce genetic damage is to use the plate incorporation method with Salmonella typhimurium strains TA98 and TA100, commonly known as the Ames assay. The Salmonella tester strains have mutations in the histidine operon, a mutation that leads to defective lipopolysaccharide (rfa), and a deletion that covers genes involved in the synthesis of biotin (bio) and in the repair of ultraviolet-induced DNA damage (uvrB).^21,22 These mutations make the strains more permeable to many molecules and increase their susceptibility to the mutagenic effects of these molecules. Given that the hypothesized mechanism of the BTO compounds is to selectively form cytotoxic radical species in bacteria over mammalian cells, a microbial mutagenicity assay is not ideal, but was used to benchmark their activities in this assay. […] Individual plate counts and their means and standard deviations, along with the condition of the background lawn, are presented in SI Table 2.
# (§2) Experimental compounds were screened for microbial mutagenicity activity using the plate incorporation method with Salmonella typhimurium tester strains TA98 and TA100, in the presence and absence of an Aroclor 1254-induced rat-liver metabolic activation system containing 10% S9 (MA). The presence of the appropriate genetic characteristics was verified for the strains used in this study. Stock solutions were made by dissolving each test sample in dimethyl sulfoxide (DMSO) at 5 mg/ml. These initial stock concentrations were then serially diluted to achieve dose formulations of 100, 50, 10, 5, 1, 0.5, and 0.1 μg/plate (dosing volume 100 μl). Test plates were compared with the control plates for their revertant count and for the condition of the background bacterial lawn. A test article was considered a mutagen when the mean number of revertant colonies on the test plates exceeds the mean solvent control counts by at least a two-fold margin. Dose relatedness was also taken into account when evaluating a mutagenic response. Cytotoxicity was estimated by several parameters: a substantial decrease in the number of revertant colonies on the test plates, clearing or absence of the background bacterial lawn growth, formation of pinpoint nonrevertant colonies, or complete absence of bacterial growth.
# [4] = system: Escherichia coli ATCC 25922; assay: Spectrum of antimicrobial activity; format: cell-based
# [5] = system: Salmonella typhimurium tester strain TA100; assay: Salmonella/microsome plate incorporation assay (Ames screen), TA100; format: cell-based
# From the text: as §1, §2
# [6] = system: Acinetobacter baumannii ATCC 17978; assay: Spectrum of antimicrobial activity; format: cell-based
# [7] = system: mouse lymphoma cell tk+/−→tk−/− gene mutation; assay: Mouse lymphoma cell tk+/−→tk−/− gene mutation (MOLY) assay; format: cell-based
# From the text: as §1
# Experiments were conducted using a standard procedure for evaluating mutagenic potential.^23,24 The details on cell line, experimental procedures and data interpretaion have been previously published.^54 The following endpoints were evaluated in cells following exposure to 15fa and 20q: cell growth during expression periods, relative suspension growth, relative total growth, relative cloning efficiency, mutation frequency, and numbers of small (≦0.6 mm in diameter) colonies from trifluorothymidine-resistant (TFT^r) cells.
# [8] = system: Enterococcus fecalis ATCC 51575; assay: Spectrum of antimicrobial activity; format: cell-based
# [9] = system: Acinetobacter baumannii BAA 1605; assay: Spectrum of antimicrobial activity; format: cell-based
# Mtb H37Rv = assay: TB MIC - ITR (UIC), Institute for Tuberculosis Research; format: cell-based, Mycobacterium tuberculosis; conditions: Mycobacterium tuberculosis, H37RV, read-out: TB MIC - ITR
# [10] = TA98, with metabolic activation (10% S9), 0.1 μg per plate
# [11] = TA98, with metabolic activation (10% S9), 0.5 μg per plate
# [12] = TA98, with metabolic activation (10% S9), 1 μg per plate
# [13] = TA98, with metabolic activation (10% S9), 5 μg per plate
# [14] = TA98, with metabolic activation (10% S9), 10 μg per plate
# [15] = TA98, with metabolic activation (10% S9), 50 μg per plate
# [16] = TA98, with metabolic activation (10% S9), 100 μg per plate
# [17] = TA98, without metabolic activation, 0.1 μg per plate
# [18] = TA98, without metabolic activation, 0.5 μg per plate
# [19] = TA98, without metabolic activation, 1 μg per plate
# [20] = TA98, without metabolic activation, 5 μg per plate
# [21] = TA98, without metabolic activation, 10 μg per plate
# [22] = TA98, without metabolic activation, 50 μg per plate
# [23] = TA98, without metabolic activation, 100 μg per plate
# [24] = presence and absence of metabolic activation
# [25] = TA100, with metabolic activation (10% S9), 0.1 μg per plate
# [26] = TA100, with metabolic activation (10% S9), 0.5 μg per plate
# [27] = TA100, with metabolic activation (10% S9), 1 μg per plate
# [28] = TA100, with metabolic activation (10% S9), 5 μg per plate
# [29] = TA100, with metabolic activation (10% S9), 10 μg per plate
# [30] = TA100, with metabolic activation (10% S9), 50 μg per plate
# [31] = TA100, with metabolic activation (10% S9), 100 μg per plate
# [32] = TA100, without metabolic activation, 0.1 μg per plate
# [33] = TA100, without metabolic activation, 0.5 μg per plate
# [34] = TA100, without metabolic activation, 1 μg per plate
# [35] = TA100, without metabolic activation, 5 μg per plate
# [36] = TA100, without metabolic activation, 10 μg per plate
# [37] = TA100, without metabolic activation, 50 μg per plate
# [38] = TA100, without metabolic activation, 100 μg per plate
compound,measurement,setting,value
"[O-][n+]1nc(N2CCCC2)[n+]([O-])c2cc3c(cc21)CCC3 [Compound 20q, 3-(pyrrolidin-1-yl)-7,8-dihydro-6H-indeno[5,6-e][1,2,4]triazine 1,4-dioxide]","Antimicrobial activity, Escherichia coli",Escherichia coli BAA 201,>32 µg/mL
same,"Antimicrobial activity, Staphylococcus aureus",[1],>32 µg/mL
same,"Antimicrobial activity, Staphylococcus aureus HA-MRSA",[2],>32 µg/mL
same,Mean revertants per plate,[3]; [10],39.5
same,Ratio treated/solvent,[3]; [10],1.4
same,Mean revertants per plate,[3]; [11],30.0
same,Ratio treated/solvent,[3]; [11],1.1
same,Mean revertants per plate,[3]; [12],47.5
same,Ratio treated/solvent,[3]; [12],1.7
same,Mean revertants per plate,[3]; [13],124.0
same,Ratio treated/solvent,[3]; [13],4.5
same,Mean revertants per plate,[3]; [14],266.5
same,Ratio treated/solvent,[3]; [14],9.8
same,Mean revertants per plate,[3]; [15],988.0
same,Ratio treated/solvent,[3]; [15],36.1
same,Mean revertants per plate,[3]; [16],1566.0
same,Ratio treated/solvent,[3]; [16],57.3
same,Mean revertants per plate,[3]; [17],33.0
same,Ratio treated/solvent,[3]; [17],1.0
same,Mean revertants per plate,[3]; [18],50.5
same,Ratio treated/solvent,[3]; [18],1.6
same,Mean revertants per plate,[3]; [19],85.0
same,Ratio treated/solvent,[3]; [19],2.7
same,Mean revertants per plate,[3]; [20],241.0
same,Ratio treated/solvent,[3]; [20],7.5
same,Mean revertants per plate,[3]; [21],378.5
same,Ratio treated/solvent,[3]; [21],11.8
same,Mean revertants per plate,[3]; [22],797.0
same,Ratio treated/solvent,[3]; [22],24.9
same,Mean revertants per plate,[3]; [23],1133.0
same,Ratio treated/solvent,[3]; [23],35.4
same,"number of revertant colonies, TA98",[3]; [24],dose-related increases in the number of revertant colonies
same,"Antimicrobial activity, Escherichia coli",[4],>32 µg/mL
same,Mean revertants per plate,[5]; [25],171.5
same,Ratio treated/solvent,[5]; [25],1.1
same,Mean revertants per plate,[5]; [26],204.0
same,Ratio treated/solvent,[5]; [26],1.3
same,Mean revertants per plate,[5]; [27],180.5
same,Ratio treated/solvent,[5]; [27],1.1
same,Mean revertants per plate,[5]; [28],267.0
same,Ratio treated/solvent,[5]; [28],1.7
same,Mean revertants per plate,[5]; [29],291.5
same,Ratio treated/solvent,[5]; [29],1.8
same,Mean revertants per plate,[5]; [30],700.5
same,Ratio treated/solvent,[5]; [30],4.4
same,Mean revertants per plate,[5]; [31],916.0
same,Ratio treated/solvent,[5]; [31],5.8
same,Mean revertants per plate,[5]; [32],173.0
same,Ratio treated/solvent,[5]; [32],1.2
same,Mean revertants per plate,[5]; [33],155.0
same,Ratio treated/solvent,[5]; [33],1.0
same,Mean revertants per plate,[5]; [34],206.0
same,Ratio treated/solvent,[5]; [34],1.4
same,Mean revertants per plate,[5]; [35],303.0
same,Ratio treated/solvent,[5]; [35],2.0
same,Mean revertants per plate,[5]; [36],392.0
same,Ratio treated/solvent,[5]; [36],2.6
same,Mean revertants per plate,[5]; [37],1033.5
same,Ratio treated/solvent,[5]; [37],7.0
same,Mean revertants per plate,[5]; [38],1468.0
same,Ratio treated/solvent,[5]; [38],9.9
same,"number of revertant colonies, TA100",[5]; [24],dose-related increases in the number of revertant colonies
same,"Antimicrobial activity, Acinetobacter baumannii",[6],>32 µg/mL
same,Mutagenic potential in MOLY assay,"[7]; 10 μg/mL, +S9, 4-Hr Exposure",Negative
same,Mutagenic potential in MOLY assay,"[7]; 10 μg/mL, +S9, 24-Hr Exposure",Negative
same,Mutagenic potential in MOLY assay,"[7]; 10 μg/mL, −S9, 4-Hr Exposure",Negative
same,Mutagenic potential in MOLY assay,"[7]; 10 μg/mL, −S9, 24-Hr Exposure",Negative
same,Mutagenic potential in MOLY assay,"[7]; 25 μg/mL, +S9, 4-Hr Exposure",Negative^a
same,Mutagenic potential in MOLY assay,"[7]; 25 μg/mL, +S9, 24-Hr Exposure",Negative
same,Mutagenic potential in MOLY assay,"[7]; 25 μg/mL, −S9, 4-Hr Exposure",Negative
same,Mutagenic potential in MOLY assay,"[7]; 25 μg/mL, −S9, 24-Hr Exposure",Negative
same,Mutagenic potential in MOLY assay,"[7]; 50 μg/mL, +S9, 4-Hr Exposure",Negative
same,Mutagenic potential in MOLY assay,"[7]; 50 μg/mL, +S9, 24-Hr Exposure",Negative
same,Mutagenic potential in MOLY assay,"[7]; 50 μg/mL, −S9, 4-Hr Exposure",Negative
same,Mutagenic potential in MOLY assay,"[7]; 50 μg/mL, −S9, 24-Hr Exposure",Negative
same,Mutagenic potential in MOLY assay,"[7]; 100 μg/mL, +S9, 4-Hr Exposure",Negative
same,Mutagenic potential in MOLY assay,"[7]; 100 μg/mL, +S9, 24-Hr Exposure",Negative
same,Mutagenic potential in MOLY assay,"[7]; 100 μg/mL, −S9, 4-Hr Exposure",Negative
same,Mutagenic potential in MOLY assay,"[7]; 100 μg/mL, −S9, 24-Hr Exposure",Negative
same,mutation frequency in MOLY assay,"[7]; presence or absence of S9, non-cytotoxic dose levels, up to 100 μg/mL for 20q",no mutagenic activity; also recorded: negative response for mutation frequency
same,"Antimicrobial activity, Enterococcus fecalis",[8],>32 µg/mL
same,"Antimicrobial activity, Acinetobacter baumannii",[9],>32 µg/mL
same,MIC,Mtb H37Rv,0.46 µg/mL
